Consider 22 compounds from patent US9090570B2, “Compounds for inflammation and immune-related uses” (Synta Pharmaceuticals Corp., priority 2005, dated 2015).

Counter-ions that a name gives are not always drawn. Where only a bound is given, the exact number is not on record here.

In one assay the test system is IL-2 production. Nature of the assay: Inhibition of IL-2 production in PHA-activated Jurkat cells (ELISA). The format is cell-based. To be noted: Homo sapiens, Jurkat, 20 h, PHA 2.5 μg/mL, IL-2 ELISA. Here is the method: Jurkat cells were placed in a 96 well plate (0.5 million cells per well in 1% FBS medium) then a test compound of this invention was added at different concentrations. After 10 minutes, the cells were activated with PHA (final concentration 2.5 μg/mL) and incubated for 20 hours at 37° C. under CO2. The final volume was 200 μL. Following incubation, the cells were centrifuged and the supernatants collected and stored at −70° C. prior to assaying for IL-2 production. A commercial ELISA kit (IL-2 Eli-pair, Diaclone Research, Besancon, France) was used to detect production of IL-2, from which dose response curves were obtained. The IC50 value was calculated as the concentration at which 50% of maximum IL-2 production after stimulation was inhibited versus a non-stimulation control.
Background: ELISA stands for enzyme-linked immunosorbent assay.
The term IC50 denotes the point on the concentration scale where inhibition reaches its midpoint. `O=C(Nc1cnc(-c2cc(C(F)(F)F)ccc2Cl)cn1)c1c(F)cccc1F` [Compound 4, N-[5-(2-Chloro-5-trifluoromethyl-phenyl)-pyrazin-2-yl]-2,6-difluoro-benzamide hydrochloride] yielded an IC50 of 6 nM.

Staying with this assay, now noted: Homo sapiens, PHA 2.5 μg/mL, 20 hours, IL-2 ELISA.
With `COc1ccc(OC)c(-c2cnc(NC(=O)c3ccncc3C)cn2)c1` [Compound 117, N-[5-(2,5-Dimethoxy-phenyl)-pyrazin-2-yl]-3-methyl-isonicotinamide], the midpoint of inhibition, the IC50, lay at 145 nM.
Still for that read-out and setting: as for `O=C(Nc1cnc(-c2cc(C(F)(F)F)ccc2Cl)cn1)c1ccncc1F` [Compound 2, N-[5-(2-Chloro-5-trifluoromethyl-phenyl)-pyrazin-2-yl]-3-fluoro-isonicotinamide], the figure is 115 nM.
As for `COC(=O)c1ccc(C)c(-c2cnc(NC(=O)c3ccncc3F)cn2)c1` [Compound 109, 3-{5-[(3-Fluoro-pyridine-4-carbonyl)-amino]-pyrazin-2-yl}-4-methyl-benzoic acid methyl ester], the IC50 turned out to be 49.2 nM.
`COc1ccc(OC)c(-c2cnc(NC(=O)c3ccncc3F)cn2)c1` [Compound 113, N-[5-(2,5-Dimethoxy-phenyl)-pyrazin-2-yl]-3-fluoro-isonicotinamide] showed an IC50 of 207 nM.
The same measure, in the same setting: in the case of `Cc1cnccc1C(=O)Nc1cnc(-c2cc(-c3ncco3)ccc2C)cn1` [Compound 62, 3-Methyl-N-[5-(2-methyl-5-oxazol-2-yl-phenyl)-pyrazin-2-yl]-isonicotinamide] it was 32.2 nM; in that of `Cc1ccc(-c2ncco2)cc1-c1cnc(NC(=O)C2CCCCC2)cn1` [Compound 121, Cyclohexanecarboxylic acid [5-(2-methyl-5-oxazol-2-yl-phenyl)-pyrazin-2-yl]-amide], 38.5 nM.
Same read-out and setting: as for `COc1ccc(OC)c(-c2cnc(NC(=O)C3CCCCC3)cn2)c1` [Compound 120, Cyclohexanecarboxylic acid [5-(2,5-dimethoxy-phenyl)-pyrazin-2-yl]-amide], the figure is 352 nM; as for `O=C(Nc1ncc(-c2cc(C(F)(F)F)ccc2Cl)cn1)c1c(F)cccc1F` [Compound 116, N-[5-(2-Chloro-5-trifluoromethyl-phenyl)-pyrimidin-2-yl]-2,6-difluoro-benzamide], 118 nM.
`COc1ccc(OC)c(-c2cnc(NC(=O)c3c(F)cccc3F)cn2)c1` [Compound 110, N-[5-(2,5-Dimethoxy-phenyl)-pyrazin-2-yl]-2,6-difluoro-benzamide]: the IC50 was 15.7 nM.
The same measure, in the same setting: in the case of `O=C(Nc1cnc(-c2cc(C(F)(F)F)ccc2Cl)cn1)c1c(F)cccc1F` [Compound 1, N-[5-(2-Chloro-5-trifluoromethyl-phenyl)-pyrazin-2-yl]-2,6-difluoro-benzamide] it was 2 nM; in that of `Cc1ncccc1C(=O)Nc1cnc(-c2cc(C(F)(F)F)ccc2Cl)cn1` [Compound 111, N-[5-(2-Chloro-5-trifluoromethyl-phenyl)-pyrazin-2-yl]-2-methyl-nicotinamide], 133 nM.
On the same count and under the same terms, as for `O=C(Nc1cnc(-c2cc(C(F)(F)F)ccc2Cl)nc1)c1c(F)cccc1F` [Compound 122, N-[2-(2-Chloro-5-trifluoromethyl-phenyl)-pyrimidin-5-yl]-2,6-difluoro-benzamide], the figure is 654 nM; as for `Cc1nnsc1C(=O)Nc1cnc(-c2cc(C(F)(F)F)ccc2Cl)cn1` [Compound 114, 4-Methyl-[1,2,3]thiadiazole-5-carboxylic acid [5-(2-chloro-5-trifluoromethyl-phenyl)-pyrazin-2-yl]-amide], 61.6 nM.
Still for that read-out and setting: as for `COc1ccc(OC)c(-c2cnc(NC(=O)c3snnc3C)cn2)c1` [Compound 119, 4-Methyl-[1,2,3]thiadiazole-5-carboxylic acid [5-(2,5-dimethoxy-phenyl)-pyrazin-2-yl]-amide], the figure is 302 nM; as for `O=C(Nc1cnc(-c2cc(C(F)(F)F)ccc2Cl)cn1)C1CCCCC1` [Compound 112, Cyclohexanecarboxylic acid [5-(2-chloro-5-trifluoromethyl-phenyl)-pyrazin-2-yl]-amide], 22.3 nM.
In turn, `O=C(Nc1ccc(-c2cc(C(F)(F)F)ccc2Cl)nn1)c1c(F)cccc1F` [Compound 60, N-[6-(2-Chloro-5-trifluoromethyl-phenyl)-pyridazin-3-yl]-2,6-difluoro-benzamide] gave an IC50 greater than 1000 nM.
The compound `O=C(Nc1cnc(-c2cc(C(F)(F)F)ccc2Cl)cn1)c1c(F)cncc1F` [Compound 115, N-[5-(2-Chloro-5-trifluoromethyl-phenyl)-pyrazin-2-yl]-3,5-difluoro-isonicotinamide] had an IC50 of 4.1 nM.
The same measure, in the same setting: as for `Cc1ccc(-c2ncco2)cc1-c1cnc(NC(=O)c2snnc2C)cn1` [Compound 64, 4-Methyl-[1,2,3]thiadiazole-5-carboxylic acid [5-(2-methyl-5-oxazol-2-yl-phenyl)-pyrazin-2-yl]-amide], the figure is 55 nM.
Same read-out and setting: in the case of `Cc1ccc(-c2ncco2)cc1-c1cnc(NC(=O)c2ccncc2F)cn1` [Compound 61, 3-Fluoro-N-[5-(2-methyl-5-oxazol-2-yl-phenyl)-pyrazin-2-yl]-isonicotinamide] it was 50.5 nM.
The same measure, in the same setting: as for `COc1ccc(OC)c(-c2cnc(NC(=O)c3c(F)cncc3F)cn2)c1` [Compound 118, N-[5-(2,5-Dimethoxy-phenyl)-pyrazin-2-yl]-3,5-difluoro-isonicotinamide], the figure is 34 nM; as for `Cc1ccc(-c2ncco2)cc1-c1cnc(NC(=O)c2c(F)cncc2F)cn1` [Compound 63, 3,5-Difluoro-N-[5-(2-methyl-5-oxazol-2-yl-phenyl)-pyrazin-2-yl]-isonicotinamide], 18.5 nM.
